US6635634B2, “Propanolamine derivatives” (Fujisawa Pharmaceutical Co., Ltd., priority 1998, dated 2003)
One block for each compound: values may come before it.

What was measured:
anesthetized dog = test: Effect on the increase in intravesical pressure induced by carbachol in anesthetized dog (Test 1); type: in vivo; conditions: for Increase in intravesical pressure (mmHg): 0.01 mg/kg intravenously 5 minutes before carbachol (1.8 μg/kg); for effect on the increase in intravesical pressure induced by carbachol (in words): anesthetized dog, 0.01 mg/kg intravenously
Description: Effect on the increase in intravesical pressure induced by carbachol in anesthetized dog
Female Beagle dogs weighing 8.0-15.0 kg were fasted for 24 hours and maintained under halothane anesthesia. A 12F Foley catheter was lubricated with water soluble jelly, inserted into the urethral orifice and advanced approximately 10 cm until the balloon tip was placed well inside the bladder. The balloon was then inflated with 5 ml of room air and catheter slowly withdrawn just part the first resistance that is felt at the bladder neck. Urine was completely drained out throught the catheter, and 30 ml of biological saline was infused. The catheter was connected to pressure transducer, and intravesical pressure was continuously recorded. The test compound was injected intravenously at 5 minutes before the administration of carbachol (1.8 μg/kg).
According to a similar manner to that of Test 1 described before, the effects of the present compounds on the intravesical pressure were evaluated.

anesthetized rat [1] = test: Effect on cystometrogram in anesthetized rat (Test 2); type: in vivo; conditions: for bladder capacity (relative % of before value): 0.01 mg/kg intravenously, N = 5
Excerpt: Effect on Cystometrogram in Anesthetized Rat Male S.D. rats, aged 7-9 weeks, were anesthetized with urethane (1.2 g/kg, sc) and supine on a board. After a midline incision in the abdomen, the bladder was exposed. Polyethylene catheters, which were used to measure the intravesical pressure and to infuse saline, were inserted into the bladder through a small incision at the apex of the bladder dome. The bladder catheters were connected to an infusion pump and pressure transducer respectively. Saline was infused a rate of 5.0 ml/hr for 1 hour. Cystometrography was performed at 15 minutes intervals for 1 hour. The bladder capacity (volume) was calculated from the time required to fill the bladder. The test compound was administered intravenously via femoral vein.

anesthetized rat [2] = test: Effect on rhythmic contraction of bladder in anesthetized rat (Test 3); type: in vivo; conditions: dose of 0.1 mg/kg intravenously
Excerpt: Effect on Rhythmic Contraction of Bladder in Anesthetized Rat
Male S.D. rats, aged 7-8 weeks, were anesthetized with urethane (1.2 g/kg, ip) and supine on a board. After a midline incision in the abdomen, the bladder was exposed. Balloon catheter, which was used to measure the intravesical pressure, was inserted into the bladder through a small incision at the apex of the bladder dome. The balloon was then inflated with distilled water and the balloon port of the catheter was connected to pressure transducer. Rhythmic contraction of bladder induced by increase intravesical pressure to 10 mmHg. The test compound was administered intravenously via femoral vein.

- melting point: 94 to 99 °C (dec.)
Compound: Cl.Oc1cc2c(cc1Cl)CC(N(Cc1ccccc1)C[C@H](O)COc1ccccc1)CCC2 (stereo partly drawn)

- melting point: 53.5 °C (dec.)
Compound: Cl.Oc1ccc2c(c1)CCCC(NC[C@H](O)COc1ccccc1)C2 (stereo partly drawn)

- melting point: 73 to 84 °C (dec.)
Compound: Cl.Oc1cccc2c1CCCC(NC[C@H](O)COc1ccccc1)C2 (stereo partly drawn)

- melting point: 100.5 °C (dec.)
Compound: Cl.O=c1[nH]c2cccc(OCC(O)CNC3CCCc4cc(O)ccc4C3)c2[nH]1 (stereo not drawn)

- melting point: 111 to 133 °C (dec.)
Compound: O=c1[nH]c2cccc(OCC(O)CN(Cc3ccccc3)C3CCCc4cc(O)ccc4C3)c2[nH]1 (stereo not drawn) [Example 11, 1-[N-benzyl-N-(6,7,8,9-tetrahydro-2-hydroxy-5H-benzocyclohepten-6-yl)amino]-3-(1,3-dihydro-2-benzoimidazolon-4-yloxy)-2-propanol]

Compound: COc1ccc(C(Cc2ccccc2)NC[C@H](O)c2ccc(O)c(NS(C)(=O)=O)c2)cc1OC (stereo partly drawn) [Test Compound (1), N-[5-[2-[l-(3,4-Dimethoxyphenyl)-2-phenylethylamino]-1(R)-hydroxyethyl]-2-hydroxyphenyl]methanesulfonamide]
- Increase in intravesical pressure (mmHg) (anesthetized dog; Control 5.0 ± 0.9, N = 3, P<0.01 vs Control): 1.8 ± 0.3 mmHg
- effect on the increase in intravesical pressure induced by carbachol (in words) (anesthetized dog): inhibited the increase in intravesical pressure induced by carbachol

Compound: O=c1n(CCCC2CCCC2)nnn1-c1ccc(S(=O)(=O)Nc2ccc(CCNC[C@H](O)c3cccnc3)cc2)cc1 [Test Compound (2), N-[4-[2-[2(R)-Hydroxy-2-(pyridin-3-yl)ethylamino]ethyl]-phenyl]-4-[4-(3-cyclopentylpropyl)-5-tetrazolon-1-yl]-benzenesulfonamide]
- Increase in intravesical pressure (mmHg) (anesthetized dog; Control 5.0 ± 1.2, N = 4, P<0.05 vs Control): 2.3 ± 1.5 mmHg
- effect on the increase in intravesical pressure induced by carbachol (in words) (anesthetized dog): inhibited the increase in intravesical pressure induced by carbachol

Compound: CS(=O)(=O)Nc1cc(C(O)CNCCOc2ccc3c(c2)[nH]c2ccccc23)ccc1O.Cl (stereo not drawn) [Test Compound (3), N-[5-[2-[2-(9H-Carbazol-2-yloxy)ethylamino]-1-hydroxyethyl]-2-hydroxyphenyl]methanesulfonamide hydrochloride]
- Increase in intravesical pressure (mmHg) (anesthetized dog; Control 5.0 ± 0.5, N = 3, P<0.01 vs Control): 1.7 ± 0.6 mmHg
- effect on the increase in intravesical pressure induced by carbachol (in words) (anesthetized dog): inhibited the increase in intravesical pressure induced by carbachol

Compound: CCOC(=O)COc1ccc2c(c1)C[C@@H](NC[C@H](O)c1cccc(Cl)c1)CC2.Cl [compound (4), 2(S)-[ (7-Ethoxycarbonylmethoxy-1,2,3,4-tetrahydro-naphthalen-2-yl)amino]-1(R)-(3-chlorophenyl)ethanol hydrochloride]
- bladder capacity (relative % of before value) (anesthetized rat [1]; time 0-15 minutes, vehicle 128): 152%
- bladder capacity (relative % of before value) (anesthetized rat [1]; time 15-30 minutes, vehicle 111): 146%
- bladder capacity (relative % of before value) (anesthetized rat [1]; time 30-45 minutes, vehicle 114): 143%
- bladder capacity (relative % of before value) (anesthetized rat [1]; time 45-60 minutes, vehicle 104): 151%
- effect on bladder capacity (in words) (anesthetized rat [1]; dose of 0.01 mg/kg intravenously): increased in bladder capacity

Compound: COC(=O)COc1ccc(C[C@@H](C)NC[C@H](O)c2cccc(Cl)c2)cc1 [compound (5), Methyl 4-[2(R)-[2-(3-chlorophenyl)-2(R)-hydroxyethyl-amino]propyl]phenoxyacetate]
- effect on contractile force of bladder (in words) (anesthetized rat [2]): decreased in contractile force of bladder

Compound: N-butyl-2-[8-[[(2S)-2-hydroxy-3-[4-hydroxy-3-methanesulfonylamino]phenoxypropyl]amino]-6,7,8,9-tetrahydro-5H-benzocyclohepten-2-yloxy]acetamide hydrochloride [Example 155]
- ED50 (effect on the intravesical pressure) (anesthetized dog; similar manner to Test 1, anesthetized dog): 0.0108 mg/kg
